How the values were obtained:
[1] = tested on: SKBR3 (PI3Kα-Wild Type) cell line; test: HTRF phospho-AKT(S473) cell assay in SKBR3 cells; assay type: cell-based, human; settings: Homo sapiens, SK-BR-3, 2 hours compound incubation, PDGF-BB stimulated
Procedure, shortened: (§1)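 T47D: RPMI + 10% FBS + 0.2 units/mL insulin, top 5 μM. SKBR3: McCoy's 5A + 10% FBS, top 10 μM, 70 ng/ml PDGF-BB last 15 min. Both: 12-pt 1:3, 2 h, 37° C, max 0.5% DMSO; HTRF pAKT(S473); IC50.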

[2] = biological target: PI3Kα H1047R (Homo sapiens, UniProt P42336, H1047R); test: PI3Kα H1047R enzyme assay (Transcreener ADP2 TR-FRET Red Assay); assay type: biochemical; settings: purified recombinant full-length protein; 2 hours pre-incubation with compound
Method: (§2) Activity against PI3Kα and PI3Kα H1047R enzymes were determined in biochemical assays using purified recombinant full-length proteins with the Transcreener ADP^2 TR-FRET Red Assay from Bellbrook Labs. (Catalogue number 3011-10K). Test compounds were dissolved in DMSO and were tested in 11 point 1:3 serial dilutions, typical final concentration range from 50,000 nM to 0.85 nM. Enzymes were pre-incubated with compounds for 2 hours at room temperature prior to initiating the reactions. Assays were initiated with a 2×ATP/PI(4,5)P2 diC8 substrate mixture. After 60 minutes at room temperature, the reactions were quenched with detection reagent and incubated for an additional 60 minutes at room temperature. The plates were read using a multimode reader and the emission ratio of 665 nm to 615 nm was determined. This ratio was converted to percent of control (POC). [1-(high control-sample signal)/(high control-low control)]*100. Wells without compound were used to determine high control values and wells without enzyme were used to determine low control values. The POC values were fit using a four-parameter logistic model and the value where the fit curve was equal to 50 POC was reported as the IC50 using the Signals VitroVivo software package (PerkinElmer). Final assay conditions were: 40 mM HEPES pH 7.5, 20 mM NaCl, 25 mM MgCl2, 0.01% Triton X-100. The enzyme source, catalogue number, final enzyme concentration, and final ATP and PI(4,5)P2 diC8 concentration can be found in the table E10 below.

[3] = biological target: PI3Kα (Homo sapiens, UniProt P42336); test: PI3Kα enzyme assay (Transcreener ADP2 TR-FRET Red Assay); assay type: biochemical; settings: purified recombinant full-length protein; 2 hours pre-incubation with compound; read-out: PI3Kα WT IC50
Method: as §2

[4] = tested on: T47D (PI3Kα-H1047R) cell line; test: HTRF phospho-AKT(S473) cell assay in T47D cells; assay type: cell-based, human; settings: Homo sapiens, 2 hours compound incubation
Procedure, shortened: as §1

[5] = SKBR3 (PI3Kα-Wild Type) cells, HTRF phospho-AKT(S473)
[6] = T47D (PI3Kα-H1047R) cells, HTRF phospho-AKT(S473)
[7] = SKBR3 (PI3Kα-Wild Type) cell line, phospho-AKT(S473) HTRF
[8] = T47D (PI3Kα-H1047R) cell line, phospho-AKT(S473) HTRF

Sequence of PI3Kα H1047R (P42336 whole entry H1047R): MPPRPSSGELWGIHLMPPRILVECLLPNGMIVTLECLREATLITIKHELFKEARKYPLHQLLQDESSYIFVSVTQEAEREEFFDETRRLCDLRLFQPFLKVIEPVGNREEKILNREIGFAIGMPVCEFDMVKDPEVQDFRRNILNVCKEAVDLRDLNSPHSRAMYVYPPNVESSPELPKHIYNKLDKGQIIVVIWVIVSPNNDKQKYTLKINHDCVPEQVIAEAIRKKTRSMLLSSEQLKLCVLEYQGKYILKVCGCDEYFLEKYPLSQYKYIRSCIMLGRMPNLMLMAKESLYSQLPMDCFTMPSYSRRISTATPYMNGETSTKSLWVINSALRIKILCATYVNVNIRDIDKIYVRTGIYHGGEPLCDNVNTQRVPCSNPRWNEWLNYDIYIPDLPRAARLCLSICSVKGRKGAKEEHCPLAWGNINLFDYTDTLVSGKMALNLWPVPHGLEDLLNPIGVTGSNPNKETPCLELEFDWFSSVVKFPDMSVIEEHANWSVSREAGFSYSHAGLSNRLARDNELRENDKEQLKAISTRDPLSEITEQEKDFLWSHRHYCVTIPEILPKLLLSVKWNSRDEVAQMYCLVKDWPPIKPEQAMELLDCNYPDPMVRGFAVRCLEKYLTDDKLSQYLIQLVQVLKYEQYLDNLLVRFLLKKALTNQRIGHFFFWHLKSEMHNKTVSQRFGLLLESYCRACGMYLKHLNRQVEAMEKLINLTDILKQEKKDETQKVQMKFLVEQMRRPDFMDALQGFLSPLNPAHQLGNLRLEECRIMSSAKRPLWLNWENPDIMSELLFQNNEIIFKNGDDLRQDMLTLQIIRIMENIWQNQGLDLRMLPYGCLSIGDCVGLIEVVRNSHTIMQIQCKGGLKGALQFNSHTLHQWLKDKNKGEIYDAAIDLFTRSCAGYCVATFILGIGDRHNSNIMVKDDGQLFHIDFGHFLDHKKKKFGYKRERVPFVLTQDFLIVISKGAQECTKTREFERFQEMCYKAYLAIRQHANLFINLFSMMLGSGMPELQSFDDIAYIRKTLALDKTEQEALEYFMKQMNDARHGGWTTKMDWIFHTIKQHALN
Sequence of PI3Kα H1047R (P27986 2-724 partner): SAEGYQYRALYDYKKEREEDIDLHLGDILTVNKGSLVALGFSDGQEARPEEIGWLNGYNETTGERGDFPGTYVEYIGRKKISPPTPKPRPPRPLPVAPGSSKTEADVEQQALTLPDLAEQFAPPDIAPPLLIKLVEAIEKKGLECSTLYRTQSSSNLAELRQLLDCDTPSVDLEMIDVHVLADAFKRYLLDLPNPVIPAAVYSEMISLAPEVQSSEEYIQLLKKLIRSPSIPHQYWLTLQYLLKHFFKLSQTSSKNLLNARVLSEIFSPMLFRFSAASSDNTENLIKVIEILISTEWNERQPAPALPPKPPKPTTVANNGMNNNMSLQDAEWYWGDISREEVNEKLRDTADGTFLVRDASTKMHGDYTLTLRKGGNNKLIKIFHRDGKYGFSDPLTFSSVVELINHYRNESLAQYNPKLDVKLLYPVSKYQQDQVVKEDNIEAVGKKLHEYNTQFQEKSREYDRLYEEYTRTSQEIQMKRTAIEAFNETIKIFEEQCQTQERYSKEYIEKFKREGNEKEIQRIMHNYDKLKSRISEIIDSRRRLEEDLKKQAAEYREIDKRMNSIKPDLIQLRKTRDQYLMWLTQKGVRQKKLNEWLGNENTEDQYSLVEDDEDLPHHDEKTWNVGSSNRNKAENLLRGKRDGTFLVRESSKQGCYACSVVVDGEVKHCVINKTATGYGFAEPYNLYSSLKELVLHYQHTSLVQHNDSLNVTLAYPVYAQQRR
Sequence of PI3Kα (P42336 whole entry): as the sequence (P42336 whole entry H1047R) above, with R1047H counted along it
Sequence of PI3Kα (P27986 2-724 partner): as the sequence (P27986 2-724 partner) above

SMILES	IC50 [1, 5] [nM]	IC50 [2] [nM]	IC50 [3] [nM]	IC50 [4, 6] [nM]	IC50 [1, 7] [nM]	IC50 [4, 8] [nM]
Cc1cc([C@@H](C)Nc2ccc(Cl)nc2C(=O)NS(C)(=O)=O)c2nc(N3CCc4ccccc4[C@H]3C)n(C)c(=O)c2c1 (mixture of isomers) [Compound 19, 6-chloro-3-(((R)-1-(3,6-dimethyl-2-((R)-1-methyl-3,4-dihydroisoquinolin-2(1H)-yl)-4-oxo-3,4-dihydroquinazolin-8-yl)ethyl)amino)-N-(methylsulfonyl) picolinamide AND 6-chloro-3-(((R)-1-(3,6-dimethyl-2-((S)-1-methyl-3,4-dihydroisoquinolin-2(1H)-yl)-4-oxo-3,4-dihydroquinazolin-8-yl)ethyl)amino)-N-(methylsulfonyl) picolinamide]	≥ 5000	≥ 1000	≥ 1000	500 to 1000		
Cc1cc([C@@H](C)Nc2ccc(Cl)nc2C(=O)NS(C)(=O)=O)c2nc(C#Cc3cnn(C)c3)n(C)c(=O)c2c1 [Compound 845, (R)-6-chloro-3-((1-(3,6-dimethyl-2-((1-methyl-1H-pyrazol-4-yl)ethynyl)-4-oxo-3,4-dihydroquinazolin-8-yl)ethyl)amino)-N-(methylsulfonyl) picolinamide]					≥ 5000	500 to 1000
Cc1cc([C@@H](C)Nc2ccc(Cl)nc2C(=O)NS(C)(=O)=O)c2nc(-c3ccc(OC4CCN(CC(F)(F)F)CC4)nc3)n(C)c(=O)c2c1 [Compound 846, (R)-6-chloro-3-((1-(3,6-dimethyl-4-oxo-2-(6-((1-(2,2,2-trifluoroethyl)piperidin-4-yl)oxy)pyridin-3-yl)-3,4-dihydroquinazolin-8-yl)ethyl)amino)-N-(methylsulfonyl) picolinamide]					≥ 5000	250 to 500
COc1nc2cc(-c3nc4c([C@@H](C)Nc5ccc(Cl)nc5C(=O)NS(C)(=O)=O)cc(C)cc4c(=O)n3C)ccc2n1C [Compound 849, (R)-6-chloro-3-((1-(2-(2-methoxy-1-methyl-1H-benzo[d]imidazol-5-yl)-3,6-dimethyl-4-oxo-3,4-dihydroquinazolin-8-yl)ethyl)amino)-N-(methylsulfonyl) picolinamide]					≥ 5000	250 to 500
Cc1cnc(-c2ccc(-c3nc4c([C@@H](C)Nc5ccc(Cl)nc5C(=O)NS(C)(=O)=O)cc(C)cc4c(=O)n3C)cn2)nc1 [Compound 851, (R)-6-chloro-3-((1-(3,6-dimethyl-2-(6-(5-methylpyrimidin-2-yl)pyridin-3-yl)-4-oxo-3,4-dihydroquinazolin-8-yl)ethyl)amino)-N-(methylsulfonyl) picolinamide]					1000 to 5000	250 to 500
Cc1cc([C@@H](C)Nc2ccc(Cl)nc2C(=O)NS(C)(=O)=O)c2nc(-c3ccc(-c4cnc(C)nc4)nc3)n(C)c(=O)c2c1 [Compound 854, (R)-6-chloro-3-((1-(3,6-dimethyl-2-(6-(2-methylpyrimidin-5-yl)pyridin-3-yl)-4-oxo-3,4-dihydroquinazolin-8-yl)ethyl)amino)-N-(methylsulfonyl) picolinamide]					1000 to 5000	< 250
[2H]C([2H])([2H])n1cc(-c2ccc(-c3nc4c([C@@H](C)Nc5ccc(Cl)nc5C(=O)NS(C)(=O)=O)cc(C)cc4c(=O)n3C)cn2)cn1 [Compound 855, (R)-6-chloro-3-((1-(3,6-dimethyl-2-(6-(1-(methyl-d3)-1H-pyrazol-4-yl)pyridin-3-yl)-4-oxo-3,4-dihydroquinazolin-8-yl)ethyl)amino)-N-(methylsulfonyl) picolinamide]					1000 to 5000	< 250
COc1ncc(-c2nc3c([C@@H](C)Nc4ccc(Cl)nc4C(=O)NS(C)(=O)=O)cc(C)cc3c(=O)n2C)cn1 [Compound 856, (R)-6-chloro-3-((1-(2-(2-methoxypyrimidin-5-yl)-3,6-dimethyl-4-oxo-3,4-dihydroquinazolin-8-yl)ethyl)amino)-N-(methylsulfonyl) picolinamide]					≥ 5000	250 to 500

Continued, values first:

IC50 [1, 5] [nM]	IC50 [2] [nM]	IC50 [3] [nM]	IC50 [4, 6] [nM]	IC50 [1, 7] [nM]	IC50 [4, 8] [nM]	SMILES
1000 to 5000	250 to 500	≥ 1000	250 to 500			Cc1cc([C@@H](C)Nc2ccc(Cl)nc2C(=O)NS(C)(=O)=O)c2nc(N3CCC(F)(F)C[C@@H]3C)n(C)c(=O)c2c1 (mixture of isomers) [Compound 12, 6-chloro-3-(((R)-1-(2-((S)-4,4-difluoro-2-methylpiperidin-1-yl)-3,6-dimethyl-4-oxo-3,4-dihydroquinazolin-8-yl)ethyl)amino)-N-(methylsulfonyl) picolinamide AND 6-chloro-3-(((R)-1-(2-((R)-4,4-difluoro-2-methylpiperidin-1-yl)-3,6-dimethyl-4-oxo-3,4-dihydroquinazolin-8-yl)ethyl)amino)-N-(methylsulfonyl) picolinamide]
1000 to 5000	500 to 1000	≥ 1000	250 to 500			Cc1cc([C@@H](C)Nc2ccc(Cl)nc2C(=O)NS(C)(=O)=O)c2nc(N3CCC(F)(F)C[C@H]3C)n(C)c(=O)c2c1 (single isomer, unassigned) [Compound 41, 6-chloro-3-(((R)-1-(2-((R*)-4,4-difluoro-2-methylpiperidin-1-yl)-3,6-dimethyl-4-oxo-3,4-dihydroquinazolin-8-yl)ethyl)amino)-N-(methylsulfonyl) picolinamide]
	≥ 1000	≥ 1000				Cc1cc([C@@H](C)Nc2ccc(Cl)nc2C(=O)NS(C)(=O)=O)c2nc(N(C)CC3(C(F)(F)F)CC3)n(C)c(=O)c2c1 [Compound 43, (R)-6-chloro-3-((1-(3,6-dimethyl-2-(methyl((1-(trifluoromethyl)cyclopropyl)methyl)amino)-4-oxo-3,4-dihydroquinazolin-8-yl)ethyl)amino)-N-(methylsulfonyl) picolinamide]
				1000 to 5000	< 250	Cc1cc([C@@H](C)Nc2ccc(Cl)nc2C(=O)NS(C)(=O)=O)c2nc(-c3ccc4nn(C)cc4c3)n(C3CC3)c(=O)c2c1 [Compound 847, (R)-6-chloro-3-((1-(3-cyclopropyl-6-methyl-2-(2-methyl-2H-indazol-5-yl)-4-oxo-3,4-dihydroquinazolin-8-yl)ethyl)amino)-N-(methylsulfonyl) picolinamide]
				≥ 5000	1000 to 5000	Cc1cc([C@@H](C)Nc2ccc(Cl)nc2C(=O)NS(C)(=O)=O)c2nc([C@H]3[C@@H]4CNC[C@@H]43)n(C)c(=O)c2c1 [Compound 848, 3-(((R)-1-(2-((1R,5S,6r)-3-azabicyclo[3.1.0]hexan-6-yl)-3,6-dimethyl-4-oxo-3,4-dihydroquinazolin-8-yl)ethyl)amino)-6-chloro-N-(methylsulfonyl) picolinamide]
				1000 to 5000	< 250	Cc1cc([C@@H](C)Nc2ccc(Cl)nc2C(=O)NS(C)(=O)=O)c2nc(-c3ccc4nn(-c5ncccn5)cc4c3)n(C)c(=O)c2c1 [Compound 850, (R)-6-chloro-3-((1-(3,6-dimethyl-4-oxo-2-(2-(pyrimidin-2-yl)-2H-indazol-5-yl)-3,4-dihydroquinazolin-8-yl)ethyl)amino)-N-(methylsulfonyl) picolinamide]
				≥ 5000	250 to 500	Cc1cc([C@@H](C)Nc2ccc(Cl)nc2C(=O)NS(C)(=O)=O)c2nc(-c3cnc(N(C)C)nc3)n(C)c(=O)c2c1 [Compound 852, (R)-6-chloro-3-((1-(2-(2-(dimethylamino)pyrimidin-5-yl)-3,6-dimethyl-4-oxo-3,4-dihydroquinazolin-8-yl)ethyl)amino)-N-(methylsulfonyl) picolinamide]
				≥ 5000	250 to 500	Cc1cc([C@@H](C)Nc2ccc(Cl)nc2C(=O)NS(C)(=O)=O)c2nc([C@H]3[C@@H]4CN(c5ccnc(C)n5)C[C@@H]43)n(C)c(=O)c2c1 [Compound 853, 6-chloro-3-(((R)-1-(3,6-dimethyl-2-((1R,5S,6r)-3-(2-methylpyrimidin-4-yl)-3-azabicyclo[3.1.0]hexan-6-yl)-4-oxo-3,4-dihydroquinazolin-8-yl)ethyl)amino)-N-(methylsulfonyl) picolinamide]
